Experimental data reported in patent publication US20240216354A1, “IMMUNOMODULATORY IMIDE DRUGS AS ZETA-CHAIN-ASSOCIATED PROTEIN KINASE 70 (ZAP70) AGONISTS AND USES THEREOF” (Dana-Farber Cancer Institute, Inc., priority 2019, published 2024).

Legend:
[1] = test system: Jurkat cells; assay: Jurkat cell growth by MTT assay; type: cell-based; details: 0.01-1 μM, 72 h
Procedure: (§1) (A) PBMCs were cultured with pomalidomide (“Pom”) (0.01-1 μM) for 16 h. […] (B) PBMCs were cultured with pomalidomide (0.1 and 1 μM) for the indicated time periods. (C) PBMCs were cultured with lenalidomide (“Len”) (1 μM) for 16 h. (D) Primary T-cells from healthy volunteer were cultured with pomalidomide (0.25-1 μM) for 16 h. (E) Jurkat cells were cultured with pomalidomide (0.5 and 1 μM) for 16 h. Whole cell lysates were subjected to immunoblotting (A-E) using indicated Abs. (F) Jurkat cells were cultured with pomalidomide (0.01-1 μM) or lenalidomide (0.01-1 μM) for 72 h. Cell growth was assessed by MTT assay.

[2] = molecular target: T1, Zap-70 (Homo sapiens, UniProt P43403); assay: Immunoblotting of p-Zap-70 and p-LAT in primary T-cells from healthy volunteer; type: cell-based; parameters: endogenous in cells; host or cells: primary PBMCs, primary T cells and primary NK cells from healthy volunteers; details: pomalidomide 0.25-1 μM, 16 h
T1 sequence (P43403 1-619): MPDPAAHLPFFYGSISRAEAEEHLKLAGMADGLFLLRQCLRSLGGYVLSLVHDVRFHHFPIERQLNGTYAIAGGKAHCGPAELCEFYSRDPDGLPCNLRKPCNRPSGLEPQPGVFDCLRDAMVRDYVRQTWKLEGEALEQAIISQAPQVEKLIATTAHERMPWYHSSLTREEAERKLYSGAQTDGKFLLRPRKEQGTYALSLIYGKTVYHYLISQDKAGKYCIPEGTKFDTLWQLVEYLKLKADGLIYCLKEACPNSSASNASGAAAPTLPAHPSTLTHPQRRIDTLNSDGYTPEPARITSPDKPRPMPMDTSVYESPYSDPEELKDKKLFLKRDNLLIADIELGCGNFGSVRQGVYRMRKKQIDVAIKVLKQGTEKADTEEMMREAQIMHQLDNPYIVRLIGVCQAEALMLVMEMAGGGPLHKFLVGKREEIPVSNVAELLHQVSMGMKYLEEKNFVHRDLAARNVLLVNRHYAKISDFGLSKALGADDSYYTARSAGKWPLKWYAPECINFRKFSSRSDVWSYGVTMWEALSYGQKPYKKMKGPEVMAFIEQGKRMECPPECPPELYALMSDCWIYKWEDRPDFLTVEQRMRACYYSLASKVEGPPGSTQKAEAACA
Procedure: as §1

Question: For `Nc1cccc2c1C(=O)N(C1CCC(=O)NC1=O)C2=O` (stereo not drawn) [pomalidomide], which “proliferation / cell growth (MTT)” value [1] is on record?
Answer: without altering their proliferation

Question: And the “p-LAT (immunoblotting)” value [2]?
Answer: induced p-Zap-70 and p-LAT in primary T cells

Question: And the “p-Zap-70 (immunoblotting)” value [2]?
Answer: induced p-Zap-70 and p-LAT in primary T cells
